Measurements: patent publication US12433869B2, “Preventing and treating malaria” (priority 2019, dated 2025)

Tests used:
[1] = test system: RBC membrane permeability to water; test: Cell scan of whole blood contacted with agents (Example 2), Pk0 measured; type: cell-based, human; details: for Pk0: whole blood of healthy volunteer in ACD, agent at the concentration listed in Table 1
Experimental: A sample of whole blood from a healthy volunteer was drawn into ACD anticoagulant. The unwashed sample was divided into aliquots and was analyzed using the Prior Shine Technology and/or the Provided Cell Scanning Technologies. The following outputs were obtained from the sample:
Using the technologies described herein, a cell-by-cell analysis was converted into a plot of percent change of cell volume vs. osmolality (“Cell Scan Plot”) by converting the individual peak voltage into a cell volume, then calculating a mean volume for an aliquot of cells, and plotting the means to generate the Cell Scan Plot. The percentage change of cell volume at each osmolality is calculated and compared to the mean cell volume of an isotonic cell (e.g., FIG. 1b). On such a plot, Pk0 (see 101) is the osmotic pressure at which the net water flow is zero (i.e., when a cell achieved its maximum volume, i.e., when it is a perfect sphere).
A sample of whole blood from a healthy volunteer was drawn into ACD anticoagulant. Blood samples were divided into aliquots, and each sample was contacted with an agent at concentrations consistent with the agent's in vivo concentration. […] Five minutes after exposure to an agent, the blood sample was evaluated for cell membrane permeability and Pk0 was measured.

[2] = test system: RBC membrane permeability; test: Effect of 5-HT on cell membrane permeability of healthy RBCs (Example 3); type: cell-based, human
Experimental: A sample of whole blood from a healthy volunteer was drawn into ACD anticoagulant. The sample was then treated with 5-HT (900 ng/mL), and cell membrane permeability was evaluated 5 minutes after treatment.

C[C@@H]1[C@H](O)[C@@H](C)/C=C/C=C/C=C/C=C/C=C/C=C/C=C/[C@H](O[C@@H]2O[C@H](C)[C@@H](O)[C@H](N)[C@@H]2O)C[C@@H]2O[C@](O)(C[C@@H](O)C[C@@H](O)[C@H](O)CC[C@@H](O)C[C@@H](O)CC(=O)O[C@H]1C)C[C@H](O)[C@H]2C(=O)O [Amphotericin B]
Pk0 [1]: 85 mOsm/kg

NCCc1c[nH]c2ccc(O)cc12 [Agent 5-HT, 5-hydroxytryptamine]
Pk0 after treatment ([2]; 5-HT 900 ng/mL, 5 minutes after treatment, normal Pk0 approx. 140 before): approx. 110 mOsm/kg | Pk0 shift after contacting with 5-HT ([2]; FIG. 5, RBCs of normal healthy individual): approx. 30 mOsm/kg | Pk0 [1]: 110 mOsm/kg

OC[C@H]1O[C@@H](O[C@H]2[C@H](O)[C@@H](O)C(O)O[C@@H]2CO)[C@H](O)[C@@H](O)[C@H]1O (some centres unmarked) [Lactose]
Pk0 lowered to ([1]; after 10 minutes): 100 mOsm/kg
